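Interpolation was linear, between the two tested concentrations surrounding the appropriate level; five concentrations were tested over 48 hours in 96-well plates. TGI: concentration producing complete growth inhibition.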 Where a SMILES comes first, the peptide text is derived from it. [ ]: non-standard residue; d: D form. The star is where a group is joined. Bn2Val = CC(C)[C@@H](C(=O)*)N(Cc1ccccc1)Cc1ccccc1; NMeV = CN[C@H](C(=O)O)C(C)C; X29 = COc1ccc(CN*)c(OC)c1; dNMeA = CN[C@H](C)C(=O)O; Boc = CC(C)(C)OC(=O)*; OBn = c1ccc(CO*)cc1
What was measured:
Experiment in all cases: NCI-60 cell line screen, 48 h
LOX IMVI melanoma = system: LOX IMVI melanoma
RXF 393 renal = system: RXF 393 renal
NCI-H460 lung = system: NCI-H460 lung
OVCAR-5 ovarian = system: OVCAR-5 ovarian
A549 NSCLC = system: A549 NSCLC
MCF7 breast = system: MCF7 breast
SW-620 colon = system: SW-620 colon
RPMI-8226 leukemia = system: RPMI-8226 leukemia
IGROV1 ovarian = system: IGROV1 ovarian
HCT-116 colon = system: HCT-116 colon

SMILES | TGI (LOX IMVI melanoma) | TGI (RXF 393 renal) | TGI (NCI-H460 lung) | TGI (OVCAR-5 ovarian) | TGI (A549 NSCLC) | TGI (MCF7 breast) | TGI (SW-620 colon) | TGI (RPMI-8226 leukemia) | TGI (IGROV1 ovarian) | TGI (HCT-116 colon)
COc1ccc(CNC(=O)[C@@H]2CCCN2C(=O)[C@@H](C)N(C)C(=O)[C@H](C(C)C)N(C)C(=O)[C@@H](NC(=O)[C@H](C(C)C)N(Cc2ccccc2)Cc2ccccc2)C(C)C)c(OC)c1 (Bn2Val-V[NMeV][dNMeA]P-X29) | 7.13 µM | 3.94 µM | 15.5 µM | 3.13 µM | > 100 µM | 12 µM | 20.6 µM | 17.2 µM | 12.6 µM | 9.62 µM
O=c1[nH]c(=O)n(COCCO)c2ccsc12 | > 100 µM | > 100 µM | > 100 µM | > 100 µM | > 100 µM | > 100 µM | > 100 µM | > 100 µM | > 100 µM | > 100 µM
CN1CN(c2ccccc2)C2(CCN(CCCCCCF)CC2)C1=O | > 100 µM | > 100 µM |  | > 100 µM | > 100 µM | 60.6 µM | > 100 µM | > 100 µM | > 100 µM | > 100 µM
CCOC(=O)C(NC(=O)CC)(Nc1ccc(S(=O)(=O)Nc2onc(C)c2C)cc1)C(F)(F)F (configuration not stated) | > 100 µM | > 100 µM | > 100 µM | > 100 µM | > 100 µM | > 100 µM | > 100 µM | > 100 µM | > 100 µM | > 100 µM
Cc1ccc(S(=O)(=O)[C@@H](Cl)[C@H]2N=C(Cl)NN=C2c2ccccc2)cc1 | 51.8 µM | 37.3 µM | > 100 µM | > 100 µM | > 100 µM | 89.6 µM | 40.8 µM | > 100 µM | 55.4 µM | > 100 µM
Cc1ccc(-c2cc(O)c3nc4ccccc4n3c2)cc1 | > 100 µM | > 100 µM | > 100 µM |  | > 100 µM | > 100 µM | > 100 µM | > 100 µM | > 100 µM | > 100 µM
CC(C)(O)C1CC[C@]2(C)[C@H]3CC[C@@H]4[C@@]5(C)CCCC(C)(C)[C@@H]5CC[C@@]4(C)[C@]3(C)CC[C@@H]12 (some centres not stated) | > 100 µM | > 100 µM | > 100 µM | > 100 µM | > 100 µM | > 100 µM | > 100 µM | > 100 µM | > 100 µM | > 100 µM
Cc1ccc(N(O)C(C)(C)C)cc1 | > 100 µM | > 100 µM | > 100 µM | > 100 µM | > 100 µM | > 100 µM | > 100 µM | > 100 µM | > 100 µM | > 100 µM
O=C(O)CC[P+](c1ccccc1)(c1ccccc1)c1ccccc1 | > 100 µM | > 100 µM |  | > 100 µM | > 100 µM | > 100 µM | > 100 µM | 19.9 µM | > 100 µM | > 100 µM
Cc1cccc2nc3c(=O)[nH]c(=O)nc-3n(C)c12 | > 100 µM | > 100 µM | > 100 µM | > 100 µM | > 100 µM | > 100 µM | > 100 µM | 95.4 µM | > 100 µM | > 100 µM
COC(=O)c1c(C)cccc1C1CN=NC12Cc1ccc(C)c(C)c1C2=O (configuration not stated) | > 100 µM | > 100 µM | > 100 µM | > 100 µM | > 100 µM | > 100 µM | > 100 µM | > 100 µM | > 100 µM | 45.6 µM
CCOC(=O)NNC(=O)NCc1ccccc1CNC(=O)NNC(=O)OCC | > 100 µM | > 100 µM | > 100 µM | > 100 µM | > 100 µM | > 100 µM | > 100 µM | > 100 µM | > 100 µM | > 100 µM
OCC(CCc1ccccc1I)C1=CCC2(CC1)OCCO2 (configuration not stated) | 29.1 µM | 34.9 µM | 57.7 µM | 34.1 µM | 62.4 µM | 55.1 µM | 61.5 µM | > 100 µM | 39.7 µM | 
COC(=O)C1=C(O)C(C(=O)OC)[C@]2(O)[C@@H](C(=O)OC)[C@H]1C[C@@H](c1ccccc1)[C@@H]2C(=O)OC (some centres not stated) | 39.3 µM | 19.9 µM | 37.8 µM | 30.9 µM |  | > 100 µM |  | 31.7 µM |  | 21.8 µM
CC(C)CC(NC(=O)OC(C)(C)C)C(=O)NC(CC(=O)OCc1ccccc1)C(=O)OCc1ccccc1 (stereo not drawn) (Boc-Leu-Asp(OBn)-OBn; configuration not given here) | 49.7 µM | 90.5 µM | > 100 µM | > 100 µM | > 100 µM | > 100 µM | > 100 µM | 97.3 µM |  | > 100 µM
C=C[C@@]1(O)CCCC[C@@H]1CC(Sc1ccccc1)Sc1ccccc1 | 34.5 µM | 30.5 µM | 26.2 µM | 32.9 µM | 36.2 µM | > 100 µM |  | 90.2 µM | 29.2 µM | 31.4 µM
Cc1ccc(S(=O)(=O)NC(=O)NC(CCCCN=C(N)N)C(=O)O)cc1 (configuration not stated) | > 100 µM | > 100 µM | > 100 µM |  | > 100 µM | > 100 µM | > 100 µM | > 100 µM | > 100 µM | > 100 µM
COC(=O)NNC(c1ccc(Cl)cc1)c1ccc(Cl)cc1 | 32 µM | 23.7 µM | 35.2 µM | 40.3 µM | 32.8 µM | 75.6 µM | 70 µM | 52 µM | 34 µM | 30.3 µM
CC(C)=CCOc1cc(NC(=S)c2ccsc2C)ccc1Cl | > 100 µM | 80.6 µM | > 100 µM | > 100 µM | > 100 µM | > 100 µM | > 100 µM | 53.1 µM | 89.3 µM | > 100 µM

SMILES | TGI (LOX IMVI melanoma) | TGI (RXF 393 renal) | TGI (NCI-H460 lung) | TGI (OVCAR-5 ovarian) | TGI (A549 NSCLC) | TGI (MCF7 breast) | TGI (SW-620 colon) | TGI (RPMI-8226 leukemia) | TGI (IGROV1 ovarian) | TGI (HCT-116 colon)
O=S(=O)(c1ccc(-c2nnc(-c3ccc(F)cc3)o2)cc1)c1ccc(-c2nnc(-c3ccc(F)cc3)o2)cc1 | > 100 µM | 77.7 µM | > 100 µM | > 100 µM | > 100 µM | > 100 µM | > 100 µM | > 100 µM | > 100 µM | > 100 µM
C[S+](C)CC1OC(n2cnc3c(N)ncnc32)C(O)C1O (configuration not stated) | > 225 µM | > 225 µM | > 225 µM | > 225 µM | > 225 µM | > 225 µM | > 225 µM | > 225 µM | > 225 µM | > 225 µM
O=C1CC(C(OCc2ccccc2)C(OCc2ccccc2)C(COCc2ccccc2)OCc2ccccc2)CC(=O)N1 (configuration not stated) | > 100 µM | > 100 µM | > 100 µM | > 100 µM | > 100 µM | > 100 µM | > 100 µM | > 100 µM | > 100 µM | > 100 µM
COC(=O)[C@@](C)(COC(=O)C(C)(C)C)NC(=O)OC(C)(C)C | > 100 µM | > 100 µM | > 100 µM | > 100 µM | > 100 µM | > 100 µM | > 100 µM | > 100 µM | > 100 µM | > 100 µM
COC(=O)CCc1c(Cc2ccc[nH]2)[nH]c(C(=O)OCc2ccccc2)c1C | 35.1 µM | 49 µM | > 100 µM | > 100 µM | > 100 µM | 35.7 µM | 45.7 µM | 76.5 µM | 31.4 µM | 32.9 µM
CN(C)CCNC(=O)c1cccc2cc3cc(O)ccc3nc12 | 2.72 µM | 10 µM | 2.16 µM | 4.32 µM | 3.47 µM | 6.47 µM | 3.46 µM | 5.46 µM | 4.43 µM | 5.73 µM
CCCCCCCCCC(=O)N[C@@H](c1ccco1)[C@@H](O)C(=O)O[C@H]1C[C@@]2(O)[C@@H](OC(=O)c3ccccc3)[C@@H]3[C@]4(OC(C)=O)CO[C@@H]4C[C@H](O)[C@@]3(C)C(=O)[C@H](OC(C)=O)C(=C1C)C2(C)C | 7.74 µM | 0.898 µM | 8.9 µM | 0.151 µM | > 50 µM | 1.81 µM | > 50 µM | 0.0483 µM | 16.1 µM | 1.13 µM
Cc1nc2n(c1/C=C1/C(=O)Nc3ccccc31)CCS2 | > 100 µM | 71.3 µM | > 100 µM | > 100 µM | > 100 µM | > 100 µM | > 100 µM | > 100 µM | > 100 µM | > 100 µM
[O-][n+]1c(CN2CCCCC2)nc2cccc3c2c1-c1ccccc1-3 | 46.8 µM | 31.1 µM | 46 µM | 50.5 µM | 33.1 µM | 76.5 µM | > 100 µM | > 100 µM | > 100 µM | 38.7 µM
CC12CCCCC1=[N+]([O-])C(C)(C)N2O (configuration not stated) | > 100 µM | > 100 µM | > 100 µM | > 100 µM | > 100 µM | > 100 µM | > 100 µM | > 100 µM | > 100 µM | > 100 µM
O=NN(CCF)C(=O)NC1CC2CCC1C2 (configuration not stated) | > 100 µM | > 100 µM | > 100 µM | > 100 µM | > 100 µM | > 100 µM | > 100 µM | > 87.7 µM | > 100 µM | > 100 µM
CN(C)c1ccc(/C=C/C(=O)N[C@@H]2C(=O)N3[C@@H]2SC(C)(C)[C@@H]3C(=O)O)cc1 | > 100 µM | > 100 µM | > 100 µM | > 100 µM | > 100 µM | > 100 µM | > 100 µM | > 100 µM |  | > 100 µM
Cc1ccc(NC2=NCCO2)c2c1CCC2 | 76 µM | > 100 µM | > 100 µM | > 100 µM | > 100 µM | > 100 µM | > 100 µM | > 100 µM | > 100 µM | 80 µM
NC(Cc1c[nH]c2cc([N+](=O)[O-])ccc12)C(=O)O (configuration not stated) | > 100 µM | > 100 µM | > 100 µM | > 100 µM | > 100 µM | > 100 µM | > 100 µM | > 100 µM | > 100 µM | > 100 µM
Nc1nccc(NCC2(CO)CCC2)n1 | > 100 µM | > 100 µM | > 100 µM | > 100 µM | > 100 µM | > 100 µM | > 100 µM | > 100 µM | > 100 µM | > 100 µM
CCN(CC)CCCNC(=O)c1cc2cc(NC(=O)c3cc4cc([N+](=O)[O-])ccc4[nH]3)ccc2[nH]1 |  | > 100 µM | > 100 µM | > 100 µM | > 100 µM | > 100 µM | > 100 µM | > 100 µM | > 100 µM | > 100 µM
CC(=O)OC12c3ccccc3C(c3ccccc31)C1C(=O)N(c3ccccn3)C(=O)C12 (configuration not stated) | > 100 µM | > 100 µM |  | > 100 µM | > 100 µM | > 100 µM | > 100 µM | > 100 µM | > 100 µM | > 100 µM
COC(=O)c1c(CC(Cc2ccc3c(c2)CCCC3)C(=O)OC)ccc2c1CCCC2 (configuration not stated) | > 100 µM | > 100 µM | > 100 µM | > 100 µM | > 100 µM | > 100 µM | > 100 µM | > 100 µM | > 100 µM | > 100 µM
Cc1nnc2n(c1=O)CCN2C | > 100 µM | > 100 µM | > 100 µM | > 100 µM | > 100 µM | > 100 µM | > 100 µM | > 100 µM | > 100 µM | > 100 µM

— PubChem BioAssay (NCI)
